In assay [1] the test system is Colon 12 tumor initiating cells. Put plainly: Tumor-initiating cell growth inhibition, Alamar Blue assay, colon TICs. Format: cell-based. As to conditions: 216 h, 9 days, read-out: Tumor Initiating Cell GI50 Range Colon 12. The procedure, abridged: (§1)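 Colon TICs (4,000/well, non-TC plates) and ovarian TICs (1,000/well, TC plates) kept in serum-free DMEM:F12 with B-27, heparin, bFGF and EGF. Compound added after 24 h at 0.1% DMSO, then 9 days (colon) or 6 days (ovarian) at 37° C. GI50 from Alamar Blue fluorescence (ex 544/em 590) after 4 h.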
(The colour change of resazurin is a common sign of viable cells or microbes.)

In assay [2] the test system is colon cancer cells (HCT116). Put plainly: Cancer cell line growth inhibition, Sulforhodamine B assay, HCT116. Format: cell-based. The settings on record: Homo sapiens, read-out: Cancer Cell Line GI50 Range HCT116. Summed up: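 HCT116 cells, 1000–4000 per well, seeded 24 h ahead, then treated 5 days with compound at 10 nM to 50 μM final in DMEM with 10% FBS. Growth measured by sulforhodamine B staining after TCA fixation, A570; GI50 from inhibition relative to DMSO-only cells.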

Assay [3] relates to breast cancer cells (MDA-MB-468). Nature of the assay: Cancer cell line growth inhibition, Sulforhodamine B assay, MDA-MB-468. Format: cell-based. As to conditions: Homo sapiens, read-out: Cancer Cell Line GI50 Range MDA-MB-468. The procedure, abridged: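 MDA-MB-468 cells exposed 5 days to compound at final 10 nM to 50 μM in DMEM with 10% FBS. Growth measured by sulforhodamine B protein staining after TCA fixation, absorbance 570 nm; inhibition relative to DMSO-only cells, GI50 determined for cytotoxic compounds.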
On the technique in general: In SRB staining, fixed cells bind dye roughly in proportion to their protein.

The subject of assay [4] is Ovarian 2393A tumor initiating cells. Nature of the assay: Tumor-initiating cell growth inhibition, Alamar Blue assay, ovarian TICs. The settings on record: 144 h, 6 days, read-out: Tumor Initiating Cell GI50 Range Ovarian 2393A. The format is cell-based. The procedure, abridged:
as §1

Assay [5] addresses T1, human TTK (Homo sapiens, UniProt P33981).
T1 construct: Active TTK was purchased from Invitrogen as an amino terminal GST fusion of full length human TTK; purchased Invitrogen
T1 sequence (P33981 1-857): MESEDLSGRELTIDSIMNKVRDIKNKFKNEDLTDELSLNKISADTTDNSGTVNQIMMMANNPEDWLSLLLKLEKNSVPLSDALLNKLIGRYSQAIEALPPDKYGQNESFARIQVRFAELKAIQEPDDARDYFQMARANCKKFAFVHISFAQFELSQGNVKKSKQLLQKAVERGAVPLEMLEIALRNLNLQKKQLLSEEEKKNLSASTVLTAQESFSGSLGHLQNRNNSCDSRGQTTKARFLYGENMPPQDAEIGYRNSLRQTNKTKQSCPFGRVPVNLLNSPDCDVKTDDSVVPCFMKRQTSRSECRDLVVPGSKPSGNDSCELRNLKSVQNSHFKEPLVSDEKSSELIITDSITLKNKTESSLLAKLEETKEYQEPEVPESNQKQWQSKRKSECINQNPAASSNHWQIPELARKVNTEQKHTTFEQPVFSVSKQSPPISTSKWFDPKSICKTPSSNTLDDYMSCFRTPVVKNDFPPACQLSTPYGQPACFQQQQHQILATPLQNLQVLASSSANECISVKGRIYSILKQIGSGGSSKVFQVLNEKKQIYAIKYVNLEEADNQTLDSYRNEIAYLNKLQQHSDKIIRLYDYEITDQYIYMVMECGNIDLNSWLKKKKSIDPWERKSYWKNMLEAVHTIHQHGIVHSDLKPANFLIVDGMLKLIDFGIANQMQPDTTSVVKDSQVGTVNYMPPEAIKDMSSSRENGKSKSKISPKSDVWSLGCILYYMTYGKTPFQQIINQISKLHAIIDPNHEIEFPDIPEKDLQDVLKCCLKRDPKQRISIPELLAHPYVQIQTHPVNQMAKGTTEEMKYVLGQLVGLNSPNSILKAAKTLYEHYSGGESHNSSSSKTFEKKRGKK
Nature of the assay: TTK inhibition assay (indirect ELISA). Format: biochemical. The settings on record: read-out: TTK IC50 Range. The procedure, abridged:
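Activity detected by indirect ELISA after compounds sat with full-length GST-TTK for 5 min prior to starting the reaction with ATP. IC50 came from a four-parameter logistic curve of % inhibition, calculated against background and uninhibited control wells.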
For orientation: An ELISA detects its analyte on a solid surface through an enzyme-linked reagent.

Assay [6] concerns ovarian cancer cells (PA-1). Put plainly: Cancer cell line growth inhibition, Sulforhodamine B assay, PA-1. Format: cell-based. The settings on record: 120 h; Table 1; PA-1, 5 days, SRB; read-out: Cancer Cell Line GI50 Range PA-1. The protocol:
Breast cancer cells (MDA-MB-231 and MDA-MB-468), colon cancer cells (HCT116) and ovarian cancer cells (PA-1 and OVCAR-3) were seeded (1000 to 4000 in 80 μl per well depending on the cell growth rate) into 96 well plates 24 hours before compound overlay. Compounds were prepared as 10 mM stock solutions in 100% DMSO which were diluted with DMEM (Dulbecco's Modified Eagle's Medium) cell growth Medium (Invitrogen, Burlington, ON, Canada) containing 10% FBS (Fetal Bovine Serum) to concentrations ranging from 50 nM to 250 μM. Aliquots (20 μl) from each concentration were overlaid to 80 μl of the pre-seeded cells in the 96 well plates to make final concentrations of 10 nM to 50 μM. The cells were cultured for 5 days before the Sulforhodamine B assay (SRB) was performed to determine the compound's cell growth inhibition activity.
Sulforhodamine B (purchased from Sigma, Oakville, ON, Canada) is a water-soluble dye that binds to the basic amino acids of the cellular proteins. Thus, colorimetric measurement of the bound dye provides an estimate of the total protein mass that is related to the cell number. the cells are fixed in situ by gently aspirating off the culture media and adding 50 μl ice cold 10% Trichloroacetic Acid (TCA) per well and incubate at 4° C. for 30-60 min, The plates are washed with H2O five times and allowed to air dry for 5 min. Addition of 50 μl 0.4% (w/v) SRB solution in 1% (v/v) acetic acid to each well and incubation for 30 min at RT completes the staining reaction. Following staining, plates are washed four times with 1% acetic acid to remove unbound dye and then allowed to air dry for 5 min. The stain is solubilized with 100 μl of 10 mM Tris pH 10.5 per well. Absorbance is read at 570 nm.
The percentage (%) of relative growth inhibition was calculated by comparing to DMSO treated only cells (100%). GI50's were determined for compounds with cytotoxic activity. The GI50 was calculated using GraphPad PRISM software (GraphPad Software, Inc., San Diego, Calif., USA).
In Table 1 below, GI50 value ranges for compound examples against breast cancer cell lines (MDA-MB-468), colon cancer cell lines (HCT116) and ovarian cancer cell lines (PA-1) are given.
In Table 2 below, GI50 value ranges for compound examples against breast cancer cell lines (MDA-MB-231), colon cancer cell lines (HCT116) and ovarian cancer cell lines (PA-1) are given.

In assay [7] the test system is ovarian cancer cells (OVCAR-3). Put plainly: Cancer cell line growth inhibition, Sulforhodamine B assay, OVCAR-3. Format: cell-based. As to conditions: Homo sapiens, OVCAR-3, OVCAR-3 ovarian cancer cell line; read-out: Cancer Cell Line GI50 Range OVCAR-3. Summed up: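 OVCAR-3 cells were seeded 24 h before compound addition, then exposed for 5 days to final concentrations of 10 nM to 50 μM in DMEM with 10% FBS. Growth was measured by TCA fixation and sulforhodamine B staining with absorbance at 570 nm. Inhibition was relative to DMSO-only cells, and GI50 came from curve fitting.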

[8] abbreviates: Table 1, colon TICs, Alamar Blue.
Where [9] appears, read: HCT-116, 120 h, Table 1, HCT116, 5 days, SRB.
Setting [10] is: MDA-MB-468, 120 h, Table 1, MDA-MB-468, 5 days, SRB.
[11] abbreviates: Table 1, ovarian TICs, Alamar Blue.

This passage reports GI50 and IC50 results from US9573954B2, “Pyrazolopyrimidine compounds” (University Health Network, priority 2012, dated 2017).

Where two headings read alike, the source gives them in different places.

Usually GI50 stands for the concentration giving 50% growth inhibition. The IC50 is the concentration that gives 50% inhibition. As for `Cc1cc(-c2cnn3c(NCC4CCOCC4)nc(NC4CCCC4)nc23)ccc1C(=O)NC1CC1` [Example A2, 4-(2-(Cyclopentylamino)-4-(((tetrahydro-2H-pyran-4-yl)methyl)amino)pyrazolo[1,5-a][1,3,5]triazin-8-yl)-N-cyclopropyl-2-methylbenzamide], the concentration for 50% growth inhibition (GI50) was no more than 100 nM in assay [1] (setting [8]); 100 to 500 nM in assay [2] (setting [9]); 100 to 500 nM in assay [3] (setting [10]); 100 to 500 nM in assay [4] (setting [11]); no more than 100 nM in assay [6]. Also, the IC50 in assay [5] (Table 1, 16 μM ATP (asterisk)) is less than 100 nM.
Regarding `O=C(NC1CC1)c1ccc(-c2cnn3c(NCC4CCOCC4)nc(Oc4ccccc4)nc23)cc1Cl` [Example A4, 2-Chloro-N-cyclopropyl-4-(2-phenoxy-4-(((tetrahydro-2H-pyran-4-yl)methyl)amino)pyrazolo[1,5-a][1,3,5]triazin-8-yl)benzamide], the GI50 in assay [1] (setting [8]) is no more than 100 nM; in assay [2] (setting [9]) it was 100 to 500 nM; in assay [3] (setting [10]), 100 to 500 nM; in assay [4] (setting [11]), 100 to 500 nM; in assay [6], 100 to 500 nM. For the same compound, in assay [5] (Table 1, 16 μM ATP (asterisk)), the concentration for half-maximal inhibition (IC50) is less than 100 nM.
With `O=C(NC1CC1)c1ccc(-c2cnn3c(NCC4CCOCC4)nc(OC4CCOCC4)nc23)cc1Cl` [Example A14, 2-chloro-N-cyclopropyl-4-(4-(((tetrahydro-2H-pyran-4-yl)methyl)amino)-2-((tetrahydro-2H-pyran-4-yl)oxy)pyrazolo[1,5-a][1,3,5]triazin-8-yl)benzamide], the 50% growth inhibitory concentration (GI50) in assay [1] (setting [8]) is greater than 500 nM; in assay [2] (setting [9]) it was 100 to 500 nM; in assay [3] (setting [10]), greater than 500 nM; in assay [4] (setting [11]), greater than 500 nM; in assay [6], 100 to 500 nM. The IC50 in assay [5] (Table 1, 16 μM ATP (asterisk)) is less than 100 nM.
Regarding `O=C(NC1CC1)c1ccc(-c2cnn3c(NCC4CCOCC4)nc(Oc4cccnc4)nc23)cc1` [Example A13, N-cyclopropyl-4-(2-(pyridin-3-yloxy)-4-(((tetrahydro-2H-pyran-4-yl)methyl)amino)-pyrazolo[1,5-a][1,3,5]triazin-8-yl)benzamide], the 50% growth inhibitory concentration (GI50) was greater than 500 nM in assay [2] (setting [9]), greater than 500 nM in assay [3] (setting [10]) and 100 to 500 nM in assay [6]. Also, in assay [5] (Table 1, 16 μM ATP (asterisk)), the IC50 is less than 100 nM.
Take `Cc1cc(-c2cnn3c(NCC4CCOCC4)nc(Oc4ccccc4)nc23)ccc1C(=O)NC1CC1` [Example A3, N-cyclopropyl-2-methyl-4-(2-phenoxy-4-(((tetrahydro-2H-pyran-4-yl)methyl)amino)pyrazolo[1,5-a][1,3,5]triazin-8-yl)benzamide]: the GI50 was no more than 100 nM in assay [1] (setting [8]); no more than 100 nM in assay [2] (setting [9]); no more than 100 nM in assay [3] (setting [10]); 100 to 500 nM in assay [4] (setting [11]); no more than 100 nM in assay [6]. The IC50 in assay [5] (Table 1, 16 μM ATP (asterisk)) is less than 100 nM.
For `O=C(NC1CC1)c1ccc(-c2cnn3c(NCC4CCOCC4)nc(Oc4ccccc4)nc23)cc1` [Example A10, N-cyclopropyl-4-(2-phenoxy-4-(((tetrahydro-2H-pyran-4-yl)methyl)amino)pyrazolo[1,5-a][1,3,5]triazin-8-yl)benzamide], the GI50 in assay [2] (setting [9]) is 100 to 500 nM; in assay [3] (setting [10]) it was greater than 500 nM; in assay [6], 100 to 500 nM. Also, in assay [5] (Table 1, 16 μM ATP (asterisk)), the IC50 was less than 100 nM.
`O=C(NC1CC1)c1ccc(-c2cnn3c(NCCN4CCOCC4)nc(Oc4cccnc4)nc23)cc1` [Example A8, N-cyclopropyl-4-(4-((2-morpholinoethyl)amino)-2-(pyridin-3-yloxy)pyrazolo[1,5-a][1,3,5]triazin-8-yl)benzamide]: the GI50 in assay [2] (setting [9]), in assay [3] (setting [10]) and in assay [6] was greater than 500 nM throughout. The IC50 in assay [5] (Table 1, 16 μM ATP (asterisk)) is greater than 500 nM.
With `O=C(NC1CC1)c1ccc(-c2cnn3c(NCC4CCOCC4)nc(OC4CCCC4)nc23)cc1` [Example A11, 4-(2-(cyclopentyloxy)-4-(((tetrahydro-2H-pyran-4-yl)methyl)amino)pyrazolo[1,5-a][1,3,5]triazin-8-yl)-N-cyclopropylbenzamide], the values for the concentration for 50% growth inhibition (GI50) in assay [2] (setting [9]), in assay [3] (setting [10]) and in assay [6] were 100 to 500 nM, greater than 500 nM and 100 to 500 nM, respectively. Further, the IC50 in assay [5] (Table 1, 16 μM ATP (asterisk)) was less than 100 nM.
With `Cc1cc(-c2cnn3c(NCC4CCN(C)CC4)cc(Oc4cccc(F)c4)nc23)ccc1C(=O)NC1CC1` [Example C46, N-cyclopropyl-4-(5-(3-fluorophenoxy)-7-(((1-methylpiperidin-4-yl)methyl)amino)pyrazolo[1,5-a]pyrimidin-3-yl)-2-methylbenzamide], the GI50 in assay [1] (Colon 12 TICs) was no more than 100 nM; in assay [7] it was 100 to 500 nM; in assay [2] (HCT-116, HCT116 colon cancer cell line) it was no more than 100 nM; in assay [3] (MDA-MB-468, MDA-MB-468 breast cancer cell line), no more than 100 nM; in assay [4] (Ovarian 2393A TICs) it was no more than 100 nM. For the same compound, the IC50 in assay [5] (100 μM ATP) is less than 100 nM.
